The text below walks through data of PMC7179450, “Primary Human Hepatocytes, But not HepG2 or Balb/c 3T3 Cells, Efficiently Metabolize Salinomycin and Are Resistant to Its Cytotoxicity” (Molecules, 2020).

The assay has as its system primary human hepatocytes (PHH). The assay is described as follows: NRU assay (neutral red uptake, lysosomal activity) in primary human hepatocytes. In kind it is cell-based. The conditions noted are these: for EC50: Homo sapiens, Hepatocyte, mean ± SEM, n = 3, read-out: EC50 (effective concentration). As for the experimental part: Cryopreserved PHH were purchased from the Primacyt GmbH (Schwerin, Germany). Two different lots were chosen based on CYP activity. The donor was a person. The post-thaw viability was 94.6% for lot HH160531 (used in two repetitions) and 85.0% for lot HH130805. The initial cell viability was determined with the trypan blue exclusion test. The cells were thawed and purified using the Plating and Thawing Kit (Primacyt GmbH). Purified hepatocytes were resuspended in Hepatocyte Plating Medium (Primacyt GmbH) and seeded on collagen-coated 96-well plates at a density of 9 × 10^5 cell/mL and incubated at 37 °C with 5% CO2. After 6 h of incubation, the medium was removed and the cells were washed with PBS. Then Human Hepatocyte Maintenance Medium (HHMM) (Primacyt GmbH) with the studied drugs was added to hepatocytes (100 µL/well). The culture conditions were kept according to the manufacturer’s protocol.
The concentration ranges of the drugs were chosen according to their solubility and their plasma level. Each drug was dissolved in DMSO. The final concentration of DMSO was 0.1% or 0.2% in the medium for both samples and corresponding controls. […] All drug solutions in medium were freshly prepared and protected from light. SAL was tested in seven concentrations from 0.39 to 25 µg/mL. Tiamulin was added in two concentrations (1 and 10 µg/mL) or just one concentration (1 µg/mL) to cell lines or human hepatocytes, respectively. Prednisolone was tested in one concentration—1 µg/mL independent of the type of cells. […] The cytotoxicity was assessed after 24 and 48 h of exposure of cell lines or after 12 and 24 h exposure of PHH. […]
The assay, based on staining of living cells by neutral red (NR), was performed according to the protocol described by Borenfreund and Puerner. […] After 10 min of shaking, the absorbance of the dissolved NR was measured at 540 nm using a blank as a reference. Cytotoxicity was expressed as a percentage of the negative control (0.1% or 0.2% DMSO).

Like-named read-outs stand apart in the source and are kept apart here.

`CC[C@@H](C(=O)[C@@H](C)[C@@H](O)[C@H](C)[C@@H]1O[C@@H]([C@@H](CC)C(=O)O)CC[C@@H]1C)[C@H]1O[C@]2(C=C[C@@H](O)[C@]3(CC[C@@](C)([C@H]4CC[C@](O)(CC)[C@H](C)O4)O3)O2)[C@H](C)C[C@@H]1C` [SAL, salinomycin]: the EC50 was 20.4 ± 1.9 µg/mL (12 h exposure) and 19.8 ± 1.6 µg/mL (24 h exposure). Besides, the “concentration at which SAL first affected lysosomal activity” value (after 24 h (Figure S1)) is reported as 1.56 µg/mL.
